Results from patent US4214093A, “Amino- or guanidino-1,2,3,4-tetrahydro-1-naphthoic esters” (Torii & Co., Ltd., priority 1977, dated 1980).
Structures can show the parent of a compound that is named as a salt. Where two headings read alike, the source gives them in different places.

What was measured:
Type in all cases: biochemical
[1] = target: T1, Trypsin (Bos taurus, UniProt P00760); experiment: Inhibitory effect on ester-hydrolyzing activity of trypsin (TAMe substrate); conditions: for inhibition at 1000 µM: read-out: Trypsin percent inhibition
T1 sequence (P00760 24-246): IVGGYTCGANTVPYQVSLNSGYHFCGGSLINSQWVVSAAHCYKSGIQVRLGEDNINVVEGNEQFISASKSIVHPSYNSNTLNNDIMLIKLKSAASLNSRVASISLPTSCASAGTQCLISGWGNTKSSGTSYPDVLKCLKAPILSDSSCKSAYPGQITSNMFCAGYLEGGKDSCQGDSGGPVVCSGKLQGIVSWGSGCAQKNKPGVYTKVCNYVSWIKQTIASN
Protocol: (§1) The enzyme-inhibitory activities in vitro of the compounds of this invention were measured by the following procedure according to the method of M. Muramatsu et al. [[…]. […] After the incubation, 1.5 ml of 2 M alkaline hydroxylamine was added and thoroughly mixed, and allowed to stand at room temperature for 15 minutes.

[2] = target: Human Plasmin (Homo sapiens, UniProt P00747); experiment: Inhibitory effect on ester-hydrolyzing activity of human plasmin (TAMe substrate); conditions: for inhibition at 1000 µM: read-out: Plasmin percent inhibition; for inhibitory activity on plasmin: text of Examples; for IC50: Table 4 bracketed value, read-out: Plasmin ID50
Chain of Human Plasmin (P00747 581-810 limits assumed): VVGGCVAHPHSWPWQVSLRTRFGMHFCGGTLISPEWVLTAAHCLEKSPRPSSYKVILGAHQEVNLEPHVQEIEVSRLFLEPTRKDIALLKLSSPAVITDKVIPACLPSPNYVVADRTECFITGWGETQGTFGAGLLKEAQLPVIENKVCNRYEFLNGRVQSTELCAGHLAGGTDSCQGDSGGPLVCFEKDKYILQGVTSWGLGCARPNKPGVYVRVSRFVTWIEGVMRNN
Chain of Human Plasmin (P00747 97-580 partner limits assumed): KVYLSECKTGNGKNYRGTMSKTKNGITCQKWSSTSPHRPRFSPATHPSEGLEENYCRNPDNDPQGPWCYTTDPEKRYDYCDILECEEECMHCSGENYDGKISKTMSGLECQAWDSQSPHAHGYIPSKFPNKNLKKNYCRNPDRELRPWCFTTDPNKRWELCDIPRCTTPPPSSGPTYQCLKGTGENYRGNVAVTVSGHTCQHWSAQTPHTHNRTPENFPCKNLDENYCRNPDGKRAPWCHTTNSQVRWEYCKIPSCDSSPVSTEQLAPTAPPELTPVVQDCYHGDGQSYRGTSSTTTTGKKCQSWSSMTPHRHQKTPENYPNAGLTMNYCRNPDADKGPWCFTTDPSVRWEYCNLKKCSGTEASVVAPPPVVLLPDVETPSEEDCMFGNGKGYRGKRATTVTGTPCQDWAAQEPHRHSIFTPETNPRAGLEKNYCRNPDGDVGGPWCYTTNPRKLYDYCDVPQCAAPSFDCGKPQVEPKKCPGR
Protocol: as §1, with “minutes. […] It was measured by using 0.1 ml of plasmin (generated by activation of plasminogen with streptokinase) and TAMe as substrate following the method described in (1).” for “minutes.”

[3] = target: Bovine Thrombin (Bos taurus, UniProt P00735); experiment: Inhibitory effect on ester-hydrolyzing activity of bovine thrombin (TAMe substrate); conditions: for inhibition at 1000 µM: at 10^-3 M, in vitro, TAMe, read-out: Thrombin percent inhibition; for inhibitory activity on thrombin: text of Examples
Protocol: The enzyme-inhibitory activities in vitro of the compounds of this invention were measured by the following procedure according to the method of M. Muramatsu et al. [M. Muramatsu, T. Onishi, S. Makino, Y. Hayashi and S. Fujii: J. Biochem., 58, 214 (1965)]
To 0.1 ml of trypsin (5 μg/ml) were added 0.5 ml of 0.1 M borate buffer solution (pH 8.6) containing 10 mM CaCl2, and 0.1 ml of a varying concentration of an inhibitor solution, and preincubation was carried out at 37° C. for 5 minutes. Then, 10 μmoles of the substrate, TAMe (tosylarginine methyl ester), was added, and incubation was preformed at 37° C. for 30 minutes.
After the incubation, 1.5 ml of 2 M alkaline hydroxylamine was added and thoroughly mixed, and allowed to stand at room temperature for 15 minutes. Then, 1.0 ml of each of 18% trichloroacetic acid, 4 N HCl and 10% FeCl3 was added and thoroughly mixed. If necessary, the mixture was centrifuged at 3,000 rpm for 10 minutes, and the absorbance of the supernatant was measured at 530 nm.
It was measured by using 0.4 ml of bovine thrombin […], 0.02 M sodium phosphate buffer solution (pH 7.4) and TAMe as substrate following the method described in (1).

[4] = target: T2, Human Cl Esterase (Homo sapiens, UniProt P09871); experiment: Inhibitory effect on ester-hydrolyzing activity of human Cl esterase (ATEe substrate); conditions: for inhibition at 1000 µM: read-out: Cl-esterase percent inhibition; for inhibitory activity on Cl-esterase: text of Examples; for IC50: pH 7.4, Table 4 bracketed value, read-out: Cl-esterase ID50
T2 sequence (P09871 438-688 limits assumed): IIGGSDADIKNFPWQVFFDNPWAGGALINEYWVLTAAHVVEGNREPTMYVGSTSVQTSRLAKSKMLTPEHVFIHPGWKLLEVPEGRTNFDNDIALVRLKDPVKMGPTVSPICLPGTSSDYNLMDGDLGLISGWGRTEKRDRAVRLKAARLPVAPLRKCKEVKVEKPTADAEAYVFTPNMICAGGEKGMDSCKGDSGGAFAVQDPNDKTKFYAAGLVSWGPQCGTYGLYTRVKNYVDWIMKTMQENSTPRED
T2 sequence (P09871 16-437 partner limits assumed): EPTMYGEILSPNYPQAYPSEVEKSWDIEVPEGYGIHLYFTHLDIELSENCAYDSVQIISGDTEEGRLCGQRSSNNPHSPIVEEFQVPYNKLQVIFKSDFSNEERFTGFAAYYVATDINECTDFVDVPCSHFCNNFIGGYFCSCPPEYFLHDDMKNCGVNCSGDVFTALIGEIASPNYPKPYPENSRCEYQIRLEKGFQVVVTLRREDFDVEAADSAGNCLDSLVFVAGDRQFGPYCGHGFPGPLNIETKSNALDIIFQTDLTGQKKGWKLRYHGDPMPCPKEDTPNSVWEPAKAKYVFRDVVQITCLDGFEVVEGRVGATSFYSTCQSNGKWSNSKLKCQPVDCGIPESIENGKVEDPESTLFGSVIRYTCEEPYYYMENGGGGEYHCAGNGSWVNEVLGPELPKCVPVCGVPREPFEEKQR
Protocol: It was measured by using 0.1 ml of Cl esterase, 0.1 ml of 0.02 M sodium phosphate buffer solution (pH 7.4 ) and 10 μmoles of ATEe (acetyltyrosine ethyl ester) as substrate following the method described in (1).

[5] = target: Human Plasma Kallikrein (Homo sapiens, UniProt P03952); experiment: Inhibitory effect on ester-hydrolyzing activity of human plasma kallikrein (TAMe substrate); conditions: for inhibition at 1000 µM: read-out: Kallikrein percent inhibition; for inhibitory activity on kallikrein: text of Examples; for IC50: Table 4 bracketed value, read-out: Kallikrein ID50
Chain of Human Plasma Kallikrein (P03952 391-638 limits assumed): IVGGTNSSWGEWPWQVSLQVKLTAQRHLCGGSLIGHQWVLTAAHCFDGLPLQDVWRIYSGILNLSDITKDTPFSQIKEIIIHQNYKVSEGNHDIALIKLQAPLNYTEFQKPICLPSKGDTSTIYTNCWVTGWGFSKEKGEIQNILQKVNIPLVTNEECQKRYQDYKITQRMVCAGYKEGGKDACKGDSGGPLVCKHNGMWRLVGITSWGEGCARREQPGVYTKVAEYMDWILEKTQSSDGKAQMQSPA
Chain of Human Plasma Kallikrein (P03952 20-390 partner limits assumed): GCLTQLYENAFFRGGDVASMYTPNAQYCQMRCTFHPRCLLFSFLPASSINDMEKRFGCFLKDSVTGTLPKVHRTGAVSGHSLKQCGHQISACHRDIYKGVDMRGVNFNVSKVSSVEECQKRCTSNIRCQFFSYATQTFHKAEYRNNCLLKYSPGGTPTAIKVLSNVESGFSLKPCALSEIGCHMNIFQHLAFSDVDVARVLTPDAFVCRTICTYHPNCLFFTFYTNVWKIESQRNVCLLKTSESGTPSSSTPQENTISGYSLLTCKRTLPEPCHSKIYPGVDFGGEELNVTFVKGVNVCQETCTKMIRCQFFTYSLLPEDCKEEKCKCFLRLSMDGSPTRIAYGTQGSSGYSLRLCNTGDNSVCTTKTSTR
Protocol: as §1

[6] = in vitro, TAMe, pH 8.6, 37° C., Table 4 bracketed value, read-out: Trypsin ID50

SMILES | IC50 [1, 6] [µM] | inhibition at 1000 µM ([2]; at 10^-3 M, in vitro, TAMe) [%] | IC50 [3] [µM] | inhibition at 1000 µM [4] [%] | inhibition at 1000 µM ([5]; at 10^-3 M, in vitro, TAMe) [%] | inhibition at 1000 µM [3] [%] | inhibition at 1000 µM ([4]; at 10^-3 M, in vitro, ATEe) [%] | IC50 ([2]; in vitro, TAMe) [µM] | further results
COC(=O)c1ccc(OC(=O)C2CCCc3c(N)cccc32)cc1 (stereo not shown) [Compound 63] | 18 | 35 | 1000 | 16.5 |  |  |  |  | 
COC(=O)c1cccc(OC(=O)C2CCCc3c(N)cccc32)c1 (stereo not shown) [Compound 64] | 61 | < 3.2 |  |  | 28 | 20.3 | < 3.2 |  | 
CCOC(=O)c1ccc(OC(=O)C2CCCc3c(N)cccc32)cc1.Cl (stereo not shown) [Compound 66, p-ethoxycarbonylphenyl 5-amino-1,2,3,4-tetrahydro-1-naphthoate hydrochloride] |  | 4.4 |  | < 3.2 | 19.9 | 16.5 |  |  | IC50 ([1]; in vitro, text of Examples, read-out: ID50, tosylarginine methyl ester hydrolyzing activity of trypsin): 88 µM; inhibitory activity on plasmin [2]: no inhibitory activity; inhibitory activity on kallikrein [5]: no inhibitory activity; inhibitory activity on thrombin [3]: no inhibitory activity; inhibitory activity on Cl-esterase [4]: no inhibitory activity
CCCOC(=O)c1ccc(OC(=O)C2CCCc3c(N)cccc32)cc1 (stereo not shown) [Compound 68] | 41 | < 3.2 |  |  |  | < 3.2 | < 3.2 |  | 
CCOC(=O)COC(=O)c1ccc(OC(=O)C2CCCc3c(N)cccc32)cc1 (stereo not shown) [Compound 70] | 52 | 26.2 |  |  | 14.1 | 22 | < 3.2 |  | 
NC(=O)COC(=O)c1ccc(OC(=O)C2CCCc3c(N)cccc32)cc1 (stereo not shown) [Compound 71] | 31 |  | 62 | 30.6 | 23.4 |  |  | 54 | 
CN(C)C(=O)COC(=O)c1ccc(OC(=O)C2CCCc3c(N)cccc32)cc1 (stereo not shown) [Compound 72] | 25 | < 3.2 | 120 | < 3.2 |  |  |  |  | IC50 ([5]; in vitro, TAMe): 1000 µM
Nc1cccc2c1CCCC2C(=O)Oc1ccc(OC(=O)C2CCCc3c(N)cccc32)cc1 (stereo not shown) [Compound 78] | 36 | < 3.2 |  |  |  | 24.4 | 15.2 |  | IC50 ([5]; in vitro, TAMe): 360 µM
Cl.Nc1ccc2c(c1)C(C(=O)Oc1ccc(Cl)cc1)CCC2 (stereo not shown) [Compound 83, p-chlorophenyl 7-amino-1,2,3,4-tetrahydro-1-naphthoate hydrochloride] |  |  |  |  |  |  |  |  | inhibitory activity on plasmin [2]: no inhibitory action; inhibitory activity on kallikrein [5]: no inhibitory action; inhibitory activity on thrombin [3]: no inhibitory action; inhibitory activity on Cl-esterase [4]: no inhibitory action
COC(=O)c1cccc(OC(=O)C2CCCc3ccc(N)cc32)c1 (stereo not shown) [Compound 92] | 98 | < 3.2 | 1000 | 27.3 | < 3.2 |  |  |  | 
CCOC(=O)c1ccc(OC(=O)C2CCCc3ccc(N)cc32)cc1 (stereo not shown) [Compound 94] | 46 | 16.6 |  |  | 25 | 42.9 | 3.2 |  | 
CCCOC(=O)c1ccc(OC(=O)C2CCCc3ccc(N)cc32)cc1 (stereo not shown) [Compound 96] | 68 | < 3.2 |  |  |  | 25.1 | < 3.2 |  | 
CCOC(=O)COC(=O)c1ccc(OC(=O)C2CCCc3ccc(N)cc32)cc1 (stereo not shown) [Compound 98] | 60 | 24.6 |  |  | < 3.2 | 40.5 | < 3.2 |  | 
NC(=O)COC(=O)c1ccc(OC(=O)C2CCCc3ccc(N)cc32)cc1 (stereo not shown) [Compound 99] | 88 |  | 66 |  |  |  |  | 300 | inhibition at 1000 µM [5]: 17.2%; IC50 ([4]; in vitro, ATEe): 540 µM
CN(C)C(=O)COC(=O)c1ccc(OC(=O)C2CCCc3ccc(N)cc32)cc1 (stereo not shown) [Compound 100] | 190 |  | 40 | 42 | 36 |  |  | 53 | 
CN(C)C(=O)COC(=O)Cc1ccc(OC(=O)C2CCCc3ccc(N)cc32)cc1 (stereo not shown) [Compound 101] | 110 |  | 300 | 31.5 | 34.4 |  |  | 48 | 
CN(C)C(=O)COC(=O)CCc1ccc(OC(=O)C2CCCc3ccc(N)cc32)cc1 (stereo not shown) [Compound 103] | 78 | 21.5 | 1000 | 27.2 | 13.3 |  |  |  | 
Nc1ccc2c(c1)C(C(=O)Oc1ccc(OC(=O)C3CCCc4ccc(N)cc43)cc1)CCC2 (stereo not shown) [Compound 106] | 92 | < 3.2 |  |  | < 3.2 | 35 | 31 |  | 
CCCCOc1ccc(OC(=O)C2CCCc3c(NC(=N)N)cccc32)cc1 (stereo not shown) [Compound 116] |  |  | 1000 |  |  |  |  | 1000 | inhibition at 1000 µM [1]: < 3.2%; inhibition at 1000 µM [5]: 29.3%; IC50 ([4]; in vitro, ATEe): 350 µM
CCOC(=O)c1ccc(OC(=O)C2CCCc3c(NC(=N)N)cccc32)cc1 (stereo not shown) [Compound 121, ethoxycarbonylphenyl 5-guanidino-1,2,3,4-tetrahydro-1-naphthoate hydrochloride] |  |  |  |  |  |  |  |  | IC50 ([1]; Example 6, read-out: ID50, tosylarginine methyl ester hydrolyzing activity of trypsin (unit inferred)): 74 µM
CCCOC(=O)c1ccc(OC(=O)C2CCCc3c(NC(=N)N)cccc32)cc1 (stereo not shown) [Compound 123] |  |  |  |  |  | 46.7 |  | 900 | inhibition at 1000 µM ([1]; at 10^-3 M, in vitro, TAMe): 45.7%; IC50 ([4]; in vitro, ATEe): 350 µM
N=C(N)Nc1cccc2c1CCCC2C(=O)Oc1ccc(C(=O)OCc2ccccc2)cc1 (stereo not shown) [Compound 124] | 75 |  |  |  |  | 45 |  | 60 | IC50 ([5]; in vitro, TAMe): 190 µM; IC50 ([4]; in vitro, ATEe): 1000 µM
N=C(N)Nc1cccc2c1CCCC2C(=O)Oc1ccc(C(=O)OCC(N)=O)cc1 (stereo not shown) [Compound 126] | 75 |  | 290 | 30.6 | 46.9 |  |  | 580 | 
N=C(N)Nc1cccc2c1CCCC2C(=O)Oc1cccc2ccccc12 (stereo not shown) [Compound 131] | 830 | 13.8 |  |  |  | < 3.2 |  |  | IC50 ([5]; in vitro, TAMe): 1000 µM; IC50 ([4]; in vitro, ATEe): 410 µM
Cc1ccc(OC(=O)C2CCCc3ccc(NC(=N)N)cc32)cc1 (stereo not shown) [Compound 136] |  |  | 900 |  |  |  |  |  | inhibition at 1000 µM [1]: 17.5%; inhibition at 1000 µM [2]: < 3.2%; inhibition at 1000 µM [5]: < 3.2%; IC50 ([4]; in vitro, ATEe): 540 µM
CCCOC(=O)c1ccc(OC(=O)C2CCCc3ccc(NC(=N)N)cc32)cc1 (stereo not shown) [Compound 151] | 100 |  | 42 |  |  |  |  | 480 | IC50 ([4]; in vitro, ATEe): 330 µM
